Our source for the Ki values is ChEMBL document CHEMBL1146155, “NC-100717: a versatile RGD peptide scaffold for angiogenesis imaging” (Bioorg Med Chem Lett, 2006).

*1 amine or outer side, *2 acyl side, *3 side chain or, on linkers, in order; H or OH if unused. Where a SMILES comes first, the peptide text is derived from it. Bridges are numbered along the chain shown (N, C = ends). Side-chain parts run from the residue outwards. [ ]: non-standard residue; d: D form. The star is where a group is joined. X1 = O=C(COCC(=O)*)NCCOCCOCCOCCOCCOCCNC(=O)CO/N=C/c1ccc(F)cc1; DOTA = O=C(O)CN1CCN(CC(=O)O)CCN(CC(=O)*)CCN(CC(=O)O)CC1; Gly(2R-SCH2CO) = O=C([C@H](N[*:1])SCC(=O)[*:3])[*:2]; X3 = C/C(=N\O)C(C)(C)NCCC(CCNC(C)(C)/C(C)=N/O)CCN*; Gly(αR-SH) = O=C([C@H](N[*:1])S[*:3])[*:2]; Glutaryl = O=C(CCCC(=O)[*:2])[*:1]; X2 = NC(=O)COCC(=O)NCCOCCOCCOCCN*

The test can be described thus: Displacement of [125I]echistatin from AlphaVbeta3/AlphaVbeta5 integrin receptor in EAHy 926 cells. Format: cell-based, Homo sapiens. On the technique in general: Displacement assays read how much labelled ligand stays bound in the presence of the test substance.
Consider `CC[N+]1=C(/C=C/C=C/C=C2/N(CCCCCC(=O)NCCCC[C@@H]3NC(=O)CS[C@H](C(=O)NCCOCCOCCOCCNC(=O)COCC(N)=O)NC(=O)[C@H](Cc4ccccc4)NC(=O)[C@@H]4NC(=O)[C@H](CC(=O)O)NC(=O)CNC(=O)[C@H](CCCNC(=N)N)NC(=O)[C@H](NC3=O)SS4)c3ccc4c(S(=O)(=O)O)cc(S(=O)(=O)O)cc4c3C2(C)C)C(C)(C)c2c1ccc1c(S(=O)(=O)[O-])cc(S(=O)(=O)O)cc21`, for which the affinity corresponds to a Ki of 0.75 nM. `N=C(N)NCCC[C@@H]1NC(=O)[C@@H]2NC(=O)[C@H](CCCCNC(=O)CN3CCN(CC(=O)O)CCN(CC(=O)O)CCN(CC(=O)O)CC3)NC(=O)CS[C@H](C(=O)NCCOCCOCCOCCNC(=O)COCC(N)=O)NC(=O)[C@H](Cc3ccccc3)NC(=O)[C@H](NC(=O)[C@H](CC(=O)O)NC(=O)CNC1=O)SS2` (K(DOTA)[Gly(αR-SH)]RGD[Gly(αR-SH)]F[Gly(2R-SCH2CO)]-X2; disulfide 2-6; lactam N-8) had an inhibition constant (Ki) of 3.2 nM. Regarding `N=C(N)NCCC[C@@H]1NC(=O)[C@@H]2NC(=O)[C@H](CCCCNC(=O)COCC(=O)NCCOCCOCCOCCOCCOCCNC(=O)CO/N=C/c3ccc(F)cc3)NC(=O)CS[C@H](C(=O)NCCOCCOCCOCCNC(=O)COCC(N)=O)NC(=O)[C@H](Cc3ccccc3)NC(=O)[C@H](NC(=O)[C@H](CC(=O)O)NC(=O)CNC1=O)SS2` (K(X1)[Gly(αR-SH)]RGD[Gly(αR-SH)]F[Gly(2R-SCH2CO)]-X2; disulfide 2-6; lactam N-8), the Ki is 8.2 nM. With `C/C(=N\O)C(C)(C)NCCC(CCNC(=O)CCCC(=O)NCCCC[C@@H]1NC(=O)CS[C@H](C(=O)NCCOCCOCCOCCNC(=O)COCC(N)=O)NC(=O)[C@H](Cc2ccccc2)NC(=O)[C@@H]2NC(=O)[C@H](CC(=O)O)NC(=O)CNC(=O)[C@H](CCCNC(=N)N)NC(=O)[C@H](NC1=O)SS2)CCNC(C)(C)/C(C)=N/O` (K([Glutaryl-X3])[Gly(αR-SH)]RGD[Gly(αR-SH)]F[Gly(2R-SCH2CO)]-X2; disulfide 2-6; lactam N-8) the figure was 3.1 nM; with `N=C(N)NCCC[C@@H]1NC(=O)[C@@H]2NC(=O)[C@H](CCCCN)NC(=O)CS[C@H](C(=O)NCCOCCOCCOCCNC(=O)COCC(N)=O)NC(=O)[C@H](Cc3ccccc3)NC(=O)[C@H](NC(=O)[C@H](CC(=O)O)NC(=O)CNC1=O)SS2` (K[Gly(αR-SH)]RGD[Gly(αR-SH)]F[Gly(2R-SCH2CO)]-X2; disulfide 2-6; lactam N-8), 6.8 nM.

The Ki is the equilibrium dissociation constant of an inhibitor or competing ligand from its target. The low end stands for tighter binding, the high end for weaker binding.
